{"source": "patent US20050031604A1", "about": "“Isolation and purification procedure of vasopeptidase peptide inhibitors” (priority 2002, published 2005)", "key": {"[1]": {"system": "isolated guinea pig ileum", "experiment": "Potentiation of the contractile activity of bradykinin on isolated guinea pig ileum", "protocol": "The potentiating activity of the pools of isolated peptides was tested on the contractile activity of bradykinin on smooth muscle, measured using a preparation of isolated guinea pig ileum. Female guinea pigs with a body weight between 160 and 180 g were used. Before starting the assays, the ileum was kept in TYRODE solution at 37° C. for 30 min. One of the ends of the isolated ileum segment, measuring 1.5 to 2.0 cm, was tied to a semi-ring located at the bottom of a glass container with a capacity of 5 mL, containing the TYRODE physiological solution at 37° C. under constant oxygen bubbling through a capillary. The other extremity of the ileum segment was tied to a previously calibrated registering arm. The tension on the arm was of 1 g, and the ileum contractions were recorded by an REC101 recorder (Pharmacia Biotech).\nIn order to determine the bradykinin potentiating effect of the samples, a log-dose curve of the effect of bradykinin on the ileum was plotted. Bradykinin activity was determined by measuring the contractions of the isolated guinea pig ileum, and the potentiating activity was expressed as a function of the increase in tissue response to a standard dose of bradykinin.\nPools and fractions were assayed individually and were added 30 seconds before the addition of a simple dose of bradykinin. […]"}, "[2]": {"system": "rat arterial blood pressure", "experiment": "Potentiation of the hypotensive effect of bradykinin in rats", "format": "in vivo", "settings": "concentrations of 300 nM", "protocol": "The hypotensive potentiating activity effect of bradykinin was tested in normotensive and hypertensive male and female Wistar rats, anesthetized with ethylic ether; a cannulae was introduced in the femoral vein for drug administration and in the femoral artery for blood pressure recording. A Gould polygraph was used coupled to a Statham Gould physiological transducer. The arterial pressure variation values were obtained by integration of the areas delimited by the pressure base line, and by comparing them with the values obtained in the control experiment. Toxin effect tests were carried out in normotensive and hypertensive rats by intra-vital microscopy using the mesenteric circulation. The animals were anesthetized, and their body temperature maintained by a heated plate, while the mesentery was trans-illuminated and observed through lenses coupled to a television camera. The vase diameters of these animals were measured with a micrometric screw. Tested substances were administered by a constant flow peristaltic pump or injected in bolus.\nWistar male rats with a body weight between 180 and 220 g were anesthetized with sodic pentabarbital (Hypnol® Cristalia, 50 mg/kg of body weight, intraperitoneally), while the body temperature was maintained between 36.5° C. and 37° C. by a heated plate. […]"}, "[3]": {"molecular_target": "T1, N site of the ACE (human angiotensin converting enzyme mutant with only the N-terminal active site functional) (Homo sapiens, UniProt P12821, H988K/H992K)", "T1 construct": "The two ACE mutants were expressed as full-length proteins; made in house", "T1 sequence (P12821 30-1306 H988K/H992K)": "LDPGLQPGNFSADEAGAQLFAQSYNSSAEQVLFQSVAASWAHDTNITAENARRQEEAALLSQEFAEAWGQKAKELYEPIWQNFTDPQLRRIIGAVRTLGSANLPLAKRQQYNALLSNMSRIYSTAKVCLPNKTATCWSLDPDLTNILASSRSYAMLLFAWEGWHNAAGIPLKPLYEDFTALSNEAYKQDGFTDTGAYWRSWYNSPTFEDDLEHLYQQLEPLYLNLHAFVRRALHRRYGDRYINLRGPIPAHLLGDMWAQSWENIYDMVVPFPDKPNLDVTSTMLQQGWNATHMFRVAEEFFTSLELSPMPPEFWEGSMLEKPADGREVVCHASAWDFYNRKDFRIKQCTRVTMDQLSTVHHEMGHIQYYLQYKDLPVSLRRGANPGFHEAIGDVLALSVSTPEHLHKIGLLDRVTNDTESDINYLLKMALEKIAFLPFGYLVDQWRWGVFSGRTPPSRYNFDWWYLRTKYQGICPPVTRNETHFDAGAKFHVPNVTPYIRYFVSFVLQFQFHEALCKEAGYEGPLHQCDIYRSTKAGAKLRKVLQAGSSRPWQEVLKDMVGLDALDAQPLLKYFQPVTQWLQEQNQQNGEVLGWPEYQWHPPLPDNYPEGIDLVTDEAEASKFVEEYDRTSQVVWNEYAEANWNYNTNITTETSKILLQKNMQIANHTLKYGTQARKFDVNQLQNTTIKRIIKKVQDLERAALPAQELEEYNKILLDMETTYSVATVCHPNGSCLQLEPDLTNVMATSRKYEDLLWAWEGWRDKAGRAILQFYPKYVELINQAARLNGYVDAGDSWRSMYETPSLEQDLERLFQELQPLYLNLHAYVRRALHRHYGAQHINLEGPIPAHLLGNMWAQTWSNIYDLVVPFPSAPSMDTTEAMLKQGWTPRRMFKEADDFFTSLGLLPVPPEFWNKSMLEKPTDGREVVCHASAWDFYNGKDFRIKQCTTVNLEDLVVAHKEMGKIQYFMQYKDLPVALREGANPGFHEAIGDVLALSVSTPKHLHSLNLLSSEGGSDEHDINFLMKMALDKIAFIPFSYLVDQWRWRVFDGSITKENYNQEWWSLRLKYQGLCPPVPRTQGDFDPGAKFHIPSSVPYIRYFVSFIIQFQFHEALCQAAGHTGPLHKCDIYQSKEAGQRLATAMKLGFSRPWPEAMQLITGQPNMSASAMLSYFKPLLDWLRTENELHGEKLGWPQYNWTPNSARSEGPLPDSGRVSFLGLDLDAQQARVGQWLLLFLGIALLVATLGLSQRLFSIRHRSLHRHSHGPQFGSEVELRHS", "experiment": "Enzymatic assay of inhibition of the N-site of recombinant ACE", "format": "biochemical", "settings": "pentapeptide, range stated in words", "protocol": "(§1) The wild-type human angiotensin converting enzyme (ACE) and two mutants, containing only one functional active site, were obtained through stable transfection of chinese hamster ovary cells with the ACE encoding cDNA. The two ACE mutants were expressed as full-length proteins, presenting one of the catalytic sites, N- or C-terminal, inactivated by substitution of the zinc binding histidine residues by lysine residues.\n(§2) The enzymatic assays were carried out at 25° C. with the substrate Mca-Ala-Ser-Asp-Lys-DpaOH, in a 50 mM Hepes buffer, pH 6.8, containing 200 mM NaCl and 10 μM ZnCl2. The reactions were continuously monitored by determining the raise in fluorescence at 390 nm emission wave length, and excitation at 340 nm, caused by the cleavage of the substrate (S=Km, 40 μM) by ACE, in a fluorimeter Fluorolite 10000 (Dynatech). The bradykinin potentiating peptides (BPPs) (inhibitors, were pre-incubated with the enzyme 90 min before the addition of the substrate."}, "NEP": {"molecular_target": "NEP (Homo sapiens, UniProt P08473)", "sequence (P08473 whole entry)": "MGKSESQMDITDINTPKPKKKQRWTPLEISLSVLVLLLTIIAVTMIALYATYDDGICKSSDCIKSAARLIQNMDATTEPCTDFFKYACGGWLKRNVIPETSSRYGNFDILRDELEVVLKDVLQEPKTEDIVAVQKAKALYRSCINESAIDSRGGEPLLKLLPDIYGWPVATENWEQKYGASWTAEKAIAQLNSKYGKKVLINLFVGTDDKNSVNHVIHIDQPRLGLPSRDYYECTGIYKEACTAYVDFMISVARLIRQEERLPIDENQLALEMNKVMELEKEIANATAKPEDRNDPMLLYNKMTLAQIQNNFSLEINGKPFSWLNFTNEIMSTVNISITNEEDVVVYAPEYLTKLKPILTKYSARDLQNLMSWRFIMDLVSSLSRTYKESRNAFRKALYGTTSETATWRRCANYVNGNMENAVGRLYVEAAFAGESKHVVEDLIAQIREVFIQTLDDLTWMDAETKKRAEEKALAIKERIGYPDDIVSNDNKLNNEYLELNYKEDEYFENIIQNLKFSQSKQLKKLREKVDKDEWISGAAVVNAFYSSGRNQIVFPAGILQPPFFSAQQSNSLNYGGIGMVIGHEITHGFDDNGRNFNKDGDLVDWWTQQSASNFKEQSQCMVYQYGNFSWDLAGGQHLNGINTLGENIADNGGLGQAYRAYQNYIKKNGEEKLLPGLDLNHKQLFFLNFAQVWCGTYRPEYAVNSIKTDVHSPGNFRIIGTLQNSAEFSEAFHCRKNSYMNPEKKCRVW", "experiment": "Inhibition of NEP", "format": "biochemical"}, "[4]": {"molecular_target": "T2, C site of the ACE (human angiotensin converting enzyme mutant with only the C-terminal active site functional) (Homo sapiens, UniProt P12821, H390K/H394K)", "T2 construct": "The two ACE mutants were expressed as full-length proteins; made in house", "T2 sequence (P12821 30-1306 H390K/H394K)": "as the sequence (P12821 30-1306 H988K/H992K) above, with H361K, H365K, K959H, K963H counted along it", "experiment": "Enzymatic assay of inhibition of the C-site of recombinant ACE", "format": "biochemical", "protocol": "as §1, §2"}}, "note": "Non-standard residues stand in square brackets, D forms with d. Residues, ends and D or L forms follow the SMILES beside them. pGlu = O=C1CC[C@@H](C(=O)O)N1", "data": [{"compound": "C[C@H](NC(=O)[C@H](Cc1c[nH]c2ccccc12)NC(=O)[C@H](CCCCN)NC(=O)[C@@H]1CCC(=O)N1)C(=O)N1CCC[C@H]1C(=O)O", "note": "[<E K W A P, Pyroglutamyl(<E)-Lysine(K)-tryptophane(W)-Alanine(A)-Proline (P)] ([pGlu]KWAP-OH)", "values": [{"measurement": "concentrations that potentiate the contractile action of bradykinin on isolated guinea pig ileum", "setting": "[1]", "value": "15 to 300", "unit": "nM"}, {"measurement": "increase in the duration of the hypotensive effect compared to bradykinin alone", "setting": "[2]", "value": 5, "unit": "fold"}, {"measurement": "potentiation of the hypotensive effect of bradykinin", "setting": "[2]", "value": 60, "unit": "%"}, {"measurement": "Ki for the N site of the ACE", "setting": "[3]", "value": "in the μM range"}, {"measurement": "Ki", "setting": "NEP", "value": "50 to 150", "unit": "µM"}, {"measurement": "selectivity for the C-site of the ACE", "setting": "[4]; C site versus N site", "value": "not presenting a defined selectivity"}, {"measurement": "Ki for the C site of the ACE", "setting": "[4]; pentapeptide, range stated in words", "value": "in the μM range"}]}]}
